Measurements published in patent US20250248940A1, “Biopolymer Formulations for Drug Delivery” (11584022 Canada Inc., priority 2022, published 2025).

Assay: release of API into water from dried API-biopolymer pellets, measured by UV/VIS spectroscopy
Type: physicochemical
Details: from the dry biopolymer matrix, versus acetyl salicylic acid
Experimental: Briefly biopolymer suspensions were produced with a known quantity of API added to the suspensions. The suspensions with API were then dried as pellets. These pellets were then added to a known volume of water and aliquots of the water were removed periodically to determine the rate of release of the API. The API concentration was measured using UV/VIS spectroscopy. The sample was dried for 10 hours in air and 3 hours in the oven at 50° C. The acetaminophen concentration in dried materials was 29.58% w/w. This figure represents release of acetaminophen into water from the dried acetaminophen doped chitin suspension, where the concentration of acetaminophen, in g/L, is plotted against time, in minutes.

release rate compared between drugs: slower release
SMILES: CC(=O)Nc1ccc(O)cc1 [acetaminophen]
